The values that follow come from patent US8580231B2, “Compositions and methods comprising magnetic resonance contrast agents” (Northwestern University, priority 2008, dated 2013).

“Also recorded” adds a separate entry of the source. Marks after values point to notes of the source that are not given here.

The subject of data set [1] is PR(+) (T47D) human breast cancer cells. Briefly: Cellular uptake studies (Example 17), PR(+) cells. The conditions noted are these: 0.125 mM for 1, 4, 10, 24 h or 0.25-2 mM for 4 h. Type of data set: cell-based. As for the experimental part:
Contrast agents were dissolved in the appropriate medium (containing stripped FBS) for each cell line (T47D and MDA-MB-231) at concentrations of 2, 1, 0.5, 0.25, and 0.125 mM of contrast agent. For concentration-dependent cellular uptake, cells were incubated with 2, 1, 0.5, and 0.25 mM of each contrast agent for 4 h. For the time dependent cellular uptake, cells were incubated with 0.125 mM contrast agent for 1, 4, 10, and 24 h. After incubation, the media was removed, and the cells were rinsed twice with PBS and trypsinized. An aliquot was used for cell counting and the remaining portion was analyzed for Gd(III) content by ICP-MS. Each condition was done in triplicate.
To determine the cell permeability of the compounds, PR(+) (T47D) and PR(−) (MDA-MB-231) human breast cancer cells were incubated with 1a, 2a, 3a, and 4a. Time- and concentration-dependent experiments were performed to identify the optimal dose and incubation times of the agents (FIG. 16).

The test system of data set [2] is PR / pPRE-luciferase in T47D cells. Nature of the data set: Luciferase assay for nPR activation. To be noted: 24 h. Type of data set: cell-based, human. As for the experimental part: T47D cells were grown in phenol-free medium, and cells were trypsinized and plated in 24-well plate (50 000 cells/well). Incubation of cells with the pPRE-luciferase plasmid (100 ng/well, construct provided by Dr. Ken Korach, NIEHS, NIH), RSV-β-galactosidase (100 ng/well, provided by Dr. William T. Beck, University of Illinois at Chicago), and Lipofectamine 2000 (1 μL per well, Invitrogen, Carlsbad, Calif.) in Opti-MEM was performed overnight at 37° C. inside a humidified incubator. The cells were treated with 1a, 2a, 3a, and 4a for an additional 24 h.
To measure luciferase production, cells were lysed in 100 μL GME buffer (25 mM glycylglycine at pH 7.8, 15 mM MgSO4, 4 mM EGTA, 1 mM dithiothreitol, and 1% Triton X-100) and lysates were added to assay buffer (GME buffer, 16.5 mM KPO4, 2.2 mM ATP, and 1.1 mM dithiothreitol). Luciferase substrate was injected followed by a 30 s read by a FLUOstar OPTIMA (BMG Lab Tech, Offenburg, Germany). LacZ activity (50 μL lysate) was measured from cleavage of ONPG. The sample results were normalized to β-galactosidase to account for transfection efficiency by dividing the sum of the luciferase activity by the sum of the β-galactosidase activity. Fold change was calculated by taking the luciferase value, dividing by the β-galactosidase activity, and then dividing by the solvent control, which was set equal to one. […]

Data set [3] deals with PR(+) T47D and PR(−) MDA-MB-231 xenografted tumors. Nature of the data set: In vivo MR imaging of xenografted nude mice (contrast-to-noise ratio). Set-up: species or system mouse. To be noted: for change in tumor CNR over preinjection levels: 2 and 6 h postinjection; for change in tumor CNR over preinjection levels / CNR of PR(+) tumor compared to PR(−) tumor: intraperitoneal; for CNR of PR(+) tumor compared to PR(−) tumor: 0.15 mmGd/kg in DMSO. As to the method: Female Balb/C athymic nude mice were acquired from Harlan (Indianapolis, Ind.) and housed under pathogen free conditions. All animal studies were conducted at Northwestern University in accordance with the National Institutes of Health Guide for the Care and Use of Laboratory Animals and established institutional animal use and care protocols. Due to low circulating estradiol levels in nude mice, a 17β-estradiol pellet (Innovative Research of America, Sarasota, FA, 70-day release, 0.72 mg/pellet) was implanted subcutaneously in the nape of the neck to ensure growth of estrogen-dependent T47D cells. Two to seven days later, T47D and MDA-MB-231 ((1−2)×10^6) cells were suspended in Matrigel (1:1 volume) and injected subcutaneously into the rear flank (T47D cells on the right side and MDA-MB-231 cells on the left). Mice were monitored for tumor growth every two to three days after injection of cells. Mice were imaged two to three weeks after xenografting when tumors were palpable with a minimum weight of 20 mg (determined after tumor removal postimaging).
Xenografted nude mice were injected intraperitoneally (n=1 per compound) with each agent (0.15 mmGd/kg) dissolved in 50 μL, DMSO. During imaging, mice were maintained under anesthesia (1-3% isoflurane) but were allowed to wake up and recover between imaging time points. Tubing containing heated water was positioned under the mouse to keep a constant body temperature. All MR imaging was performed on a 89 mm bore size PharmaScan 7.05 T MR imager fitted with shielded gradient coils (Bruker BioSpin, Billerica, Mass., USA) using a RF RES 300 1H 089/038 quadrature transmit receive volume coil (Bruker BioSpin, Billerica, Mass., USA). […] Images were analyzed using ImageJ. Contrast-to-noise ratio (CNR) was calculated using the equation CNR=(SITissue−SImuscle)/σnoise where SITumor is the signal intensity in the tumor, SIMuscle is the signal intensity in the muscle, and σnoise is the standard deviation of the noise. CNRs were averaged over two to three axial slices in which the tumors were clearly demarcated.
To determine whether the water-soluble progesterone-conjugated agents would increase the contrast-to-noise ratio (CNR) of PR(+) tumors relative to PR(−) tumors in vivo, athymic nude mice with PR(+) and PR(−) xenografted tumors were injected intraperitoneally with 1a, 2a, or 3a dissolved in DMSO and imaged at 2 and 6 h postinjection. Intraperitoneal injection was chosen over subcutaneous injection because it yielded more consistent results in previous studies, and the parent compound, ProGlo, has been more extensively studied for its biodistribution after intraperitoneal injection. (19) In addition, while these agents are water-soluble, they were dissolved in DMSO to compare back to previous in vivo imaging with the insoluble ProGlo and the control agent 4a.(19)

Data set [4] has as its target T1, progesterone receptor A ligand binding domain (amino acids 675-933) fused to GST (PR-LBD-GST) (Homo sapiens, UniProt P06401).
T1 construct: purchased Invitrogen
T1 sequence (P06401 675-933): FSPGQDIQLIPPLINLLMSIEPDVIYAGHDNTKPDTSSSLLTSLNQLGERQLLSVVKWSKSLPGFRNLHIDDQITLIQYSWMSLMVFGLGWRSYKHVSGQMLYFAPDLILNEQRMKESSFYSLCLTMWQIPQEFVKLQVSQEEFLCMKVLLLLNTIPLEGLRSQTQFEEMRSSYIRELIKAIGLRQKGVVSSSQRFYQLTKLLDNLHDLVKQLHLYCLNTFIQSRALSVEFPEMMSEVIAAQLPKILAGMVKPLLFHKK
Nature of the data set: Receptor binding to nPR (fluorescence polarization, Example 17). For orientation: Fluorescence polarisation rises when a labelled molecule tumbles more slowly, as on binding a larger partner.

A short description of data set [5]: Biodistribution study (Gd(III) in organs by ICP-MS). Type of data set: in vivo, mouse. To be noted: mice, organs harvested 30 minute to 24 hour.
Data set [6] relates to PR(+) T47D and PR(−) MDA-MB-231 xenografted tumors. To be noted: previously reported (ref. 19); cited from earlier work.
The conditions of data set [7]: taken from Caravan et al.; cited from earlier work.

Consider “{2,2′,2″-((10-((1-(5-(2-(10,13-Dimethyl-3-oxo-2,3,6,7,8,9,10,11,12,13,14,15,16,17-tetradecahydro-1H-cyclopenta[a]phenanthren-17-yl)-2-oxoethoxy)pentyl)-1H-1,2,3-triazol-4-yl)methyl)-1,4,7,10-tetraazacyclododecane-1,4,7-triyl)triacetate}gadolinium [Compound 2a]”, for which, in data set [1], the “cellular Gd(III) uptake” value is listed as “time-dependent accumulation”. Also, in data set [2], the “PRE-mediated transcription (luciferase activity)” value is “lowest efficacy”. For the same molecule, the “change in tumor CNR over preinjection levels” value in data set [3] is “slow increase in CNR over time”. Besides, the “CNR of PR(+) tumor compared to PR(−) tumor” value in data set [3] (6 h postinjection) is “significantly higher CNR”.

As to “{2,2′,2″-(10-(2-(((1-(5-(2-(10,13-Dimethyl-3-oxo-2,3,6,7,8,9,10,11,12,13,14,15,16,17-tetradecahydro-1H-cyclopenta[a]phenanthren-17-yl)-2-oxoethoxy)pentyl)-1H-1,2,3-triazol-4-yl)methyl)amino)-2-oxoethyl)-1,4,7,10-tetraazacyclododecane-1,4,7-triyl)triacetate}gadolinium [Compound 1a]”, the “RBA, fold less than that of progesterone” value in data set [4] is recorded as “about 100 fold”. Moreover, the “cellular Gd(III) uptake” value in data set [1] is “increased slightly after 1 h and then stabilized”. Further, the “change in tumor CNR over preinjection levels” value in data set [3] is on record as “several-fold increase in CNR; also recorded: increased CNR by 2 h, but CNR had decreased by 6 h”. For the same molecule, the “CNR of PR(+) tumor compared to PR(−) tumor” value in data set [3] (2 h postinjection) and in data set [3] (6 h postinjection) was “significantly higher CNR” throughout. Moreover, in data set [3] (2 h time point, compared to preinjection CNR), the “fold change in CNR in the PR(+) tumors, percent higher than with ProGlo” value was found to be 16%.

As to DO3A-Gd(III), the “tissue distribution of Gd(III) (percentage per gram of tissue)” value in data set [5] was “mainly end up in the liver and kidney”. For the same molecule, in data set [6], the “tumor CNR after injection” value is listed as “only minimal increases in CNR over time”.

With `CCCCCCN1CCN(CC(=O)[O-])CCN(CC(=O)[O-])CCN(CC(=O)[O-])CC1.[Gd+3]` [hexyl-DO3A-Gd(III)], the “tissue distribution of Gd(III) (percentage per gram of tissue)” value in data set [5] was “mainly end up in the liver and kidney”.

With `CC(O)CN1CCN(CC(=O)[O-])CCN(CC(=O)[O-])CCN(CC(=O)[O-])CC1.[Gd+3]` (centres unmarked) [Prohance], the Relaxivity in data set [7] is given as 3.7* mM^−1s^−1.
